Laboratory results taken from patent US9309263B2, “Fused multi-cyclic sulfone compounds as inhibitors of beta-secretase and methods of use thereof” (AMGEN INC., priority 2013, dated 2016).
Where two headings read alike, the source gives them in different places.

Tests used:
[1] = target: Beta Secretase enzyme (BACE) (Homo sapiens, UniProt P56817); experiment: In vitro enzymatic BACE FRET assay; format: biochemical; settings: read-out: BACE1 FRET assay IC50
Protocol: In Vitro Enzymatic BACE FRET (Fluorescence Resonance Energy Transfer) Assay (Enzyme Assay Data in the Example Table I)
The assay buffer used in this screen is 0.05 M acetate, pH 4.2, 10% DMSO final, 100 uM genapol (which is a nonionic detergent, below its Critical Micelle Concentration). The Beta Secretase enzyme (0.2 nM) is pre-incubated for one hour with inhibitors, typically in about 1 uL of DMSO according to a serial dilution, are added thereto. This assay is effectively started by the addition of FRET substrate (50 nM) and the combination is incubated for one hour. The FRET assay is terminated with by addition of Tris buffer, which raises the pH to neutrality, and the fluorescence is determined. The FRET substrate is a peptide with commercially available fluorophore and quencher, on opposite sides of the BACE cleavage site. Proteolytic cleavage of the FRET substrate releases quenching of fluorescence (excitation 488 nm and […]).

[2] = tested on: Aβ 40 in conditioned medium of cells stably expressing Amyloid Precursor Protein (APP); experiment: In vitro BACE cell-based assay (Aβ 40 sandwich ELISA); settings: Homo sapiens, HEK293
Protocol: In Vitro BACE Cell-Based Assay
The cell-based assay measures inhibition or reduction of […] in conditioned medium of test compound treated cells expressing amyloid precursor protein.
Cells stably expressing Amyloid Precursor Protein (APP) were plated at a density of 40K cells/well in 96 well plates (Costar). The cells were cultivated for 24 hours at 37° C. and 5% CO2 in DMEM supplemented with 10% FBS. The test compounds were then added to cells in 10-point dose response concentrations with the starting concentration being either 100 μM or 10 μM. The compounds were diluted from stock solutions in DMSO and the final DMSO concentration of the test compounds on cells was 0.1%. After 24 h of incubation with the test compounds the supernatant conditioned media was collected and the Aβ 40 levels were determined using a sandwich ELISA. The IC50 of the compound was calculated from the percent of control or percent inhibition of Aβ 40 as a function of the concentration of the test compound.
The sandwich ELISA to detect Aβ 40 was performed in 96 well microtiter plates, which were pre-treated with goat anti-rabbit IgG (Pierce). The capture and detecting antibody pair that were used to detect Aβ 40 from cell supernatants were affinity purified pAb40 (Biosource) and biotinylated 6E10 (Signet Labs Inc.), respectively. The optimal concentration for the pAb40 antibody was 3 μg/ml in Superblock/TBS (Pierce) that was supplemented with 0.05% Tween 20 (Sigma). Optimal concentration for the detection antibody 6E10-biotinylated was 0.5 μg/ml in Superblock/TBS (Pierce) that had been supplemented with 2% normal goat serum and 2% normal mouse serum.
Cellular supernatants were incubated with the capture antibody for 3 h at 4° C., followed by 3 wash steps in TBS-tween (0.05%). The detecting antibody incubation was for 2 h at 4° C., again followed by the wash steps as described previously. The final readout of the ELISA is Time-Resolved Fluorescence (counts per minute) using Delfia reagents Streptavidin-Europium and Enhancement solutions (Perkin Elmer) and the Victor 2 multilabel counter (Perkin Elmer).

[3] = target: Cathepsin D (Cat D) (Homo sapiens, UniProt P07339); experiment: In vitro enzymatic Cathepsin D (Cat D) FRET assay; format: biochemical
Protocol: In Vitro Enzymatic Cathepsin D (Cat D) FRET (Fluorescence Resonance Energy Transfer) Assay
Recombinant Cat D was expressed in CHO cells. The assay buffer for CathepsinD is 0.05 M citrate pH 3.5, 10% DMSO final, 5 mM CHAPS. The Cat D enzyme (9 nM) is pre-incubated for one hour with inhibitors, typically in about 1 uL of DMSO according to a serial dilution, is added thereto. The assays are effectively started by the addition of different FRET substrates (20 nM for Cat D) and the combination is incubated for one hour. The FRET assay is terminated with by addition of Tris buffer, which raises the pH to neutrality, and the fluorescence is determined. The FRET substrate is a peptide with commercially available fluorophore and quencher, on opposite sides of the BACE cleavage site. The Cat D substrate peptide sequence is based on sequence #1 of Table 1 from Gulnik et al. FEBS Letters v413 p 379-384 1997. Proteolytic cleavage of the FRET substrate releases quenching of fluorescence (Cat D excitation 500 nm and emission 580 nm). […]
See, for instance, examples 8, 12, 15, 16, 18, 21-23, 24, 25, 26, 29, 30, 32, 41-42, 45, 53, 54, 57, 63, 67-69, 72-74, 76, 79-81, 83 & 84 (to point to just a few; referring to data in Table 2). […] See, for instance, examples 8, 12, 15, 18, 21-23, 25, 29, 30, 32, 41-42, 45, 54, 57, 67-68, 72-73, 76, 80-81, 84, 86, 91-92 & 100 (to point out those from compound examples 1-100; and with reference to data in Table 2).

[4] = average IC50, in vitro enzymatic BACE FRET assay
[5] = average IC50, HEK cell assay, Aβ 40 readout
[6] = Cathepsin D FRET assay, read-out: CatD IC50
[7] = text summary referring to data in Table 2

Sequence of Beta Secretase enzyme (BACE) (P56817 46-501): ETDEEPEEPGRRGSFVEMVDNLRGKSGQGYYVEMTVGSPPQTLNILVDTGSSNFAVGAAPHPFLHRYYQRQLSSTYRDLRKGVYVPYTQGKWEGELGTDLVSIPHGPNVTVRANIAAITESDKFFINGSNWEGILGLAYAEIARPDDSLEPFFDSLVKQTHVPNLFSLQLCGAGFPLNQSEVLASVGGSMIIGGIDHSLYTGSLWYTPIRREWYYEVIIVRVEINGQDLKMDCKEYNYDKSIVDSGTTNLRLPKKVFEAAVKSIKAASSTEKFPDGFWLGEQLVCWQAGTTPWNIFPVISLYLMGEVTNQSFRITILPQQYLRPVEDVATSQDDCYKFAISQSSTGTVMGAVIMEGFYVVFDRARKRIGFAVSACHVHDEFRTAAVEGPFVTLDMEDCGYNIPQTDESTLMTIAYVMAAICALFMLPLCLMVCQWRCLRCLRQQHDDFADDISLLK
Sequence of Cathepsin D (Cat D) (P07339 65-412, species assumed): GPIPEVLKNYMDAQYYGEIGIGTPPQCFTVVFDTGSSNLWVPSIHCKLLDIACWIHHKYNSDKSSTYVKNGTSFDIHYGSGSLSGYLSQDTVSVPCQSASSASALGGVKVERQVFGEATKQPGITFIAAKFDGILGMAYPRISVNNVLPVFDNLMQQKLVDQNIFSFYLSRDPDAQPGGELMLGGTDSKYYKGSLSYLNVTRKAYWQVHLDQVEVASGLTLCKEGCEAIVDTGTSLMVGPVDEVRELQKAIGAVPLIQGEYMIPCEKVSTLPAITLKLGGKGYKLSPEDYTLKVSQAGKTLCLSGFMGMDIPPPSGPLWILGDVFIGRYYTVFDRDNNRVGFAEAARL

Structure (SMILES) | IC50 [1, 4] | IC50 [2, 5] | IC50 [3, 6] | IC50 ([1]; average IC50) | IC50 ([2]; HEK cell, average IC50) | IC50 ([3]; read-out: CatD IC50) | IC50 [3, 7] | IC50 ([2]; HEK cells, average IC50)
Cc1cc(OC(F)F)cnc1C(=O)Nc1ccc2c(c1)[C@@]1(C)N=C(N)C(C)(C)S(=O)(=O)[C@@H]1CCO2 [Example 157, N-((4aR,11bR)-2-amino-3,3,11b-trimethyl-4,4-dioxido-4a,5,6,11b-tetrahydro-3H-[1]benzoxepino[4,5-b][1,4]thiazin-10-yl)-5-(difluoromethoxy)-3-methyl-2-pyridinecarboxamide] | 0.002 µM | 0.003 µM | 1200 µM |  |  |  |  | 
CC1(C)C(N)=N[C@]2(C)c3cc(Nc4nccc5cc(C#N)cnc45)ccc3CCC[C@@H]2S1(=O)=O [Example 33, 8-(((4aS,11bR)-2-amino-3,3,11b-trimethyl-4,4-dioxido-3,4a,5,6,7,11b-hexahydrobenzo[3,4]cyclohepta[1,2-b][1,4]thiazin-10-yl)amino)-1,7-naphthyridine-3-carbonitrile] |  |  |  | 0.029 µM | 0.097 µM | 286 µM |  | 
COc1cnc(C(=O)Nc2ccc3c(c2)[C@@]2(C)N=C(N)C(C)(C)S(=O)(=O)[C@@H]2CCO3)c(C)n1 [Example 22, N-((4aR,11bR)-2-amino-3,3,11b-trimethyl-4,4-dioxido-4a,5,6,11b-tetrahydro-3H-[1]benzoxepino[4,5-b][1,4]thiazin-10-yl)-5-methoxy-3-methyl-2-pyrazinecarboxamide] |  |  |  | 0.017 µM | 0.007 µM | 1240 µM |  | 
CC1(C)C(N)=N[C@]2(C)c3cc(NC(=O)c4cnc(OCC(F)F)cn4)ccc3OCC[C@H]2S1(=O)=O [Example 90, N-((4aR,11bR)-2-amino-3,3,11b-trimethyl-4,4-dioxido-4a,5,6,11b-tetrahydro-3H-benzo[6,7]oxepino[4,5-b][1,4]thiazin-10-yl)-5-(2,2-difluoroethoxy)pyrazine-2-carboxamide] | 0.007 µM | 0.011 µM | 919 µM |  |  |  |  | 
C[C@H]1C[C@@H]2[C@](C)(N=C(N)C(C)(C)S2(=O)=O)c2cc(NC(=O)c3ccc(OCc4ncco4)cn3)ccc2O1 [Example 144, N-((4aR,6S,11bR)-2-amino-3,3,6,11b-tetramethyl-4,4-dioxido-4a,5,6,11b-tetrahydro-3H-[1]benzoxepino[4,5-b][1,4]thiazin-10-yl)-5-(1,3-oxazol-2-ylmethoxy)-2-pyridinecarboxamide] | 0.004 µM | 0.003 µM | 564 µM |  |  |  |  | 
Cc1cc(OC(F)F)cnc1C(=O)Nc1ccc2c(c1)[C@@]1(C)N=C(N)C(C)(C)S(=O)(=O)[C@H]1CCC2 [Example 39, N-((4aS,11bR)-2-amino-3,3,11b-trimethyl-4,4-dioxido-3,4a,5,6,7,11b-hexahydrobenzo[3,4]cyclohepta[1,2-b][1,4]thiazin-10-yl)-5-(difluoromethoxy)-3-methyl-2-pyridinecarboxamide] |  |  |  | 0.142 µM | 0.022 µM | > 400 µM |  | 
COc1cnc2c(Nc3ccc4c(c3)[C@@]3(C)N=C(N)C(C)(C)S(=O)(=O)[C@@H]3C[C@H](C)O4)nccc2n1 [Example 53, (4aR,6S,11bR)-N^~10^~-(2-methoxypyrido[3,4-b]pyrazin-5-yl)-3,3,6,11b-tetramethyl-4a,5,6,11b-tetrahydro-3H-[1]benzoxepino[4,5-b][1,4]thiazine-2,10-diamine 4,4-dioxide] |  |  |  | 0.032 µM | 0.011 µM | 977 µM | > 800 µM | 
Cc1cnc(COc2cnc3c(Nc4ccc5c(c4)[C@@]4(C)N=C(N)C(C)(C)S(=O)(=O)[C@@H]4C[C@H](C)O5)nccc3n2)o1 [Example 134, (4aR,6S,11bR)-3,3,6,11b-tetramethyl-N^~10^~-(2-((5-methyl-1,3-oxazol-2-yl)methoxy)pyrido[3,4-b]pyrazin-5-yl)-4a,5,6,11b-tetrahydro-3H-[1]benzoxepino[4,5-b][1,4]thiazine-2,10-diamine 4,4-dioxide] | 0.003 µM | 0.003 µM | > 44.4 µM |  |  |  |  | 

More lines, now with the values ahead:

IC50 [1, 4] | IC50 [2, 5] | IC50 [3, 6] | IC50 ([1]; average IC50) | IC50 ([2]; HEK cell, average IC50) | IC50 ([3]; read-out: CatD IC50) | IC50 [3, 7] | IC50 ([2]; HEK cells, average IC50) | Structure (SMILES)
 |  |  | 0.002 µM | 0.0009 µM | 1050 µM | > 1200 µM |  | C[C@H]1C[C@@H]2[C@](C)(N=C(N)C(C)(C)S2(=O)=O)c2cc(NC(=O)c3cnc(OCc4ncco4)cn3)ccc2O1 [Example 76, N-((4aR,6S,11bR)-2-amino-3,3,6,11b-tetramethyl-4,4-dioxido-4a,5,6,11b-tetrahydro-3H-[1]benzoxepino[4,5-b][1,4]thiazin-10-yl)-5-(1,3-oxazol-2-ylmethoxy)-2-pyrazinecarboxamide]
 |  |  | 0.012 µM | 0.019 µM | 458 µM |  |  | CC1(C)C(N)=N[C@]2(C)c3cc(NC(=O)c4ccc(Cl)cn4)ccc3CCC[C@H]2S1(=O)=O [Example 43, N-((4aR,11bR)-2-amino-3,3,11b-trimethyl-4,4-dioxido-3,4a,5,6,7,11b-hexahydrobenzo[3,4]cyclohepta[1,2-b][1,4]thiazin-10-yl)-5-chloro-2-pyridinecarboxamide]
 |  |  | 0.011 µM | 0.004 µM | 340 µM |  |  | COc1cnc(C(=O)Nc2ccc3c(c2)[C@@]2(C)N=C(N)C(C)(C)S(=O)(=O)[C@@H]2CCC3)cn1 [Example 10, N-((4aR,11bR)-2-amino-3,3,11b-trimethyl-4,4-dioxido-3,4a,5,6,7,11b-hexahydrobenzo[3,4]cyclohepta[1,2-b][1,4]thiazin-10-yl)-5-methoxy-2-pyrazinecarboxamide]
 |  |  | 0.003 µM | 0.007 µM | 871 µM |  |  | C[C@H]1C[C@@H]2[C@](C)(N=C(N)C(C)(C)S2(=O)=O)c2cc(NC(=O)c3cnc(OCC(F)(F)F)cn3)ccc2O1 [Example 74, N-((4aR,6S,11bR)-2-amino-3,3,6,11b-tetramethyl-4,4-dioxido-4a,5,6,11b-tetrahydro-3H-[1]benzoxepino[4,5-b][1,4]thiazin-10-yl)-5-(2,2,2-trifluoroethoxy)-2-pyrazinecarboxamide]
 |  |  | 0.006 µM |  | 279 µM |  | 0.01 µM | CC1(C)C(N)=N[C@]2(C)c3cc(NC(=O)c4ccc(Cl)cn4)ccc3OCC[C@H]2S1(=O)=O [Example 186, N-((4aR,11bR)-2-amino-3,3,11b-trimethyl-4,4-dioxido-4a,5,6,11b-tetrahydro-3H-[1]benzoxepino[4,5-b][1,4]thiazin-10-yl)-5-chloro-2-pyridinecarboxamide]
 |  |  | 0.008 µM |  | 1550 µM |  | 0.003 µM | Cc1cc(C(F)(F)F)cnc1C(=O)Nc1ccc2c(c1)[C@@]1(C)N=C(N)C(C)(C)S(=O)(=O)[C@@H]1CCO2 [Example 188, N-((4aR,11bR)-2-amino-3,3,11b-trimethyl-4,4-dioxido-4a,5,6,11b-tetrahydro-3H-[1]benzoxepino[4,5-b][1,4]thiazin-10-yl)-3-methyl-5-(trifluoromethyl)-2-pyridinecarboxamide]
